# Assay results: patent publication US20260275403A1, “METHOD FOR DETECTION OF NUCLEIC ACID END(S)” (INTODNA SPÓLKA AKCYJNA, priority 2023, published 2026)
# Entries after “also recorded” stand apart in the source; their conditions may differ.
# Columns and labels:
# [1] = tested on: human cells U2OS WT
# Procedure: (§1) • 1. Proteinase K treatment of the biological material for 30 seconds (at a concentration of about 7 μg/mL (1:350 dilution of proteinase K stock concentration of 2.5 mg/mL), solution in PBS) at about 22° C. (i.e. room temperature) • 2. (optional) incubation with 1 mM PMSF in PBS for 5 minutes at about 22° C. • 3. (optional) rinse with PBS
# (§2) • 5. Polymerase I reaction at 37° C. with polymerase I enzyme, […], biotin-16-dUTP, biotin-16-dCTP, and dGTP • 6. (optional) rinse with buffer
# (§3) • 1. (optional) 60 min incubation in Navinci Blocking Buffer at 37° C. • 2. 60 min incubation in 1:100 rabbit monoclonal anti-PMS2 (or PMS1 or MLH1) antibody in Navinci Primary Antibody Diluent at about 22° C. • 3. (optional) PBS rinse • 4. 60 min incubation in 1:100 mouse monoclonal anti-biotin antibody in Navinci Primary Antibody Diluent at about 22° C. • 5. (optional) PBS rinse
# (§4) • 1. PLA probes binding reaction at 37° C. (Navinci PLA reagents and standard protocol) • 2. Reaction A at 37° C. • 3. Reaction B at 37° C. • 4. Reaction C at 37° C.
# In vehicle conditions the operation medium was changed to a fresh one with supplementation of 0.1% sterile DMSO and left to rest for the incubation time.
# [2] = tested on: HAP1 PMS2 KO cells; conditions: 6TG 1 uM 48 h treatment
# Procedure: as §1, §2, §3
# (§5) • 1. PLA probes binding reaction at 37° C. (Navinci PLA reagents and standard protocol) • 2. Reaction A at 37° C. • 3. Reaction B at 37° C. • 4. Reaction C at 37° C. […]
# (§6) When cell confluence reached 90%, cells were washed with sterile PBS (without Ca^2+ and Mg^2+) and incubated for 2 min with 2 mL of 0.25% trypsin solution with EDTA. Trypsin was inactivated with the culture medium containing FBS and the collected cells were counted in the Burker chamber. […]
# [3] = tested on: HAP1 parental cells; conditions: 6TG at a higher concentration
# Procedure: as §1, §2, §3, §5, §6
# [4] = tested on: HAP1 cells (WT and KO)
# Procedure: as §1, §2, §3, §4
# After 24 h of rest the operation medium was changed to a fresh one with supplementation of 1 μM or 10 μM 6-Tioguanine (6TG) in DMSO and left to rest for the incubation time 48h (final DMSO concentration was 0.1% in medium in each experimental condition). […]
# [5] = tested on: NCI-H661 (i.e. HR proficient cell line); assay: dSTRIDE, double-strand DNA breaks; format: cell-based, human; conditions: 48h; for number of double-strand DNA breaks detected by dSTRIDE: NCI-H661, 5 μM or 50 μM etoposide
# Procedure: (§7) NCI-H1693 and NCI-H661 were purchased from ATCC cell culture collection (18.05.2022). The detailed cell culture description is listed on Table 16. […] The master bank collection was prepared form #1 passage.
# (§8) (also included passage number).
# (§9) The labelling was performed according to protocols described in Examples 2 or 3.
# [6] = tested on: NCI-H1693 (i.e. HR deficient) cell line; assay: dSTRIDE, double-strand DNA breaks; format: cell-based, human; conditions: 48h; for number of double-strand DNA breaks detected by dSTRIDE: NCI-H1693, 5 μM or 50 μM etoposide
# Procedure: as §7, §8, §9
# [7] = tested on: NCI-H661 (i.e. HR proficient cell line); assay: dSTRIDE-RAD51 (dSTRIDE-HR), RAD51-associated double-strand DNA breaks; format: cell-based, human; conditions: 48h; for number of dSTRIDE-HR (RAD51) foci: NCI-H661, 5 μM or 50 μM etoposide
# Procedure: (§10) • 1. […] (i.e. room temperature) • 2. […] (optional) rinse with PBS
# (§11) • 1. TdT reaction at 37° C. with BrdU and TdT enzyme • 2. (optional) rinse with PBS
# (§12) • 6. […] 7. […] (optional) PBS rinse • 9. […] (optional) PBS rinse
# as §4, §7, §8, §9
# [8] = tested on: NCI-H1693 (i.e. HR deficient cell line); assay: as above; format: cell-based, human; conditions: NCI-H1693, 5 μM or 50 μM etoposide, 48h
# Procedure: as §10, §11, §12, §4, §7, §8, §9
# [9] = tested on: NCI-H661 (i.e. HR proficient cell line); assay: dSTRIDE-RPA, RPA70-associated double-strand DNA breaks; format: cell-based, human; conditions: NCI-H661, 5 μM or 50 μM etoposide, 48h
# Procedure: as §11
# (§13) • 1. […] (optional) PBS rinse • 4. […] (optional) PBS rinse
# as §4, §7, §8, §9
# [10] = tested on: NCI-H1693 (i.e. HR deficient) cell line; assay: as above; format: cell-based, human; conditions: 48h
# Procedure: as §11, §13, §4, §7, §8, §9
# [11] = NCI-H1693 versus NCI-H661, 50 uM etoposide
structure (smiles),measurement,setting,value
"Nc1nc2[nH]cnc2c(=S)[nH]1 [6TG, 6-Tioguanine]",maximum number of sSTRIDE MMR foci per nucleus,"[1]; Sample 4, 6TG treated U2OS WT cells, 48 h (6TG 100nM per Table 3), antigen retrieval 1 (proteinase K 2 min)",3 foci per nucleus
same,response in number of foci detected after 6TG treatment (quantitative image analysis),"[1]; U2OS WT, 6TG 48 h, antigen retrieval 1 (proteinase K 2 min)",no response
same,number of foci in the nucleus after treatment,"[1]; U2OS WT, 48 h 6TG in different concentration, Abcam antibody, antigen retrieval method v2",did not significantly increase number of foci
same,sSTRIDE MMR readouts level of 6TG treated cells versus non-treated samples,"[1]; U2OS WT, Abcam antibody, 6TG 250 nM-10 μM, 24 h or 48 h, antigen retrieval method 2",lower than in the non-treated samples
same,number of sSTRIDE-MMR fluorescence foci,[2],does not result in a significant increase
same,level of sSTRIDE-MMR signals,[3],elevated level of sSTRIDE-MMR signals
same,sSTRIDE-MMR (MLH1) readouts,"[4]; HAP1 PMS2 WT and KO, 6TG treatment",increase in sSTRIDE-MMR (MLH1) readouts
same,PMS1 at SSBs (sSTRIDE-PMS1),[4]; after treatment with 6TG,engaged in MMR processes
"COc1cc([C@@H]2c3cc4c(cc3[C@@H](O[C@@H]3O[C@@H]5CO[C@@H](C)O[C@H]5[C@H](O)[C@H]3O)[C@H]3COC(=O)[C@H]23)OCO4)cc(OC)c1O [etoposide, Etoposide]",number of double-strand DNA breaks detected by dSTRIDE,[5],dose-dependent increase in the number of DSBs; also recorded: dose-dependent response
same,number of double-strand DNA breaks detected by dSTRIDE,[5]; listed as Etoposide,efficiently induces DSBs
same,"increase in DSBs (dSTRIDE), cell line comparison","[5]; NCI-H661, 5 um etoposide",comparable in both cell lines
same,number of double-strand DNA breaks detected by dSTRIDE,[6],increase in the number of double-strand DNA breaks; also recorded: dose-dependent increase in the number of DSBs; also recorded: dose-dependent formation of double-strand DNA breaks
same,number of double-strand DNA breaks detected by dSTRIDE,[6]; listed as Etoposide,efficiently induces DSBs
same,"increase in DSBs (dSTRIDE), cell line comparison","[6]; NCI-H1693, 5 um etoposide",comparable in both cell lines
same,"number of DSBs (dSTRIDE), cell line comparison",[6]; [11],more profound increase; also recorded: more DSBs are induced in HR deficient than in HR proficient cell lines
same,number of dSTRIDE-HR (RAD51) foci,[7],dose-dependent increase; also recorded: dose-dependent response
same,number of dSTRIDE-HR (RAD51) foci,[7]; listed as Etoposide,increase in the number of visible fluorescence foci
same,number of RAD51-associated double-strand DNA breaks detected by dSTRIDE-RAD51,"[7]; NCI-H661, 50 uM etoposide",significant increase
same,number of RAD51-associated double-strand DNA breaks detected by dSTRIDE-RAD51,[8],no response
same,number of RAD51-associated double-strand DNA breaks detected by dSTRIDE-RAD51,[8]; listed as Etoposide,did not results in a detectable increase; also recorded: no response
same,number of RPA-associated double-strand DNA breaks detected by dSTRIDE-RPA,[9],dose-dependent increase in the number of dSTRIDE-RPA foci; also recorded: dose-dependent response
same,number of RPA-associated double-strand DNA breaks detected by dSTRIDE-RPA,"[10]; NCI-H1693, 5 μM or 50 μM etoposide",dose-dependent increase in the number of dSTRIDE-RPA foci
same,"dSTRIDE-RPA foci, cell line comparison",[10]; [11],more dSTRIDE-RPA foci detected in HR deficient cell line
